Where a name gives a salt, the structure may show the parent alone. Read-outs that look alike come from different tables or passages of the source.
System: IRE1-XBP1s (XBP1-RLuc splicing reporter in HEK293 T-REx cells)
Experiment: IRE1-XBP1s activation assay (XBP1-RLuc splicing reporter, HEK293 T-REx cells, luminescence relative to thapsigargin)
Format: cell-based
Conditions: 18 h, read-out: Activity (IRE1-XBP1s activation, luminescence as % signal relative to thapsigargin, % Tg)
Procedure: IRE1-XBP1s activation Assay: HEK293 T-REx cells stably expressing the XBP1-RLuc splicing reporter were treated with an IRE1-XBP1s activator provided herein (10 μM) in the presence or absence of the IRE1 active site inhibitor 4μ8C (32 μM) for 18 h. Luminescence was shown as the percentage signal relative to thapsigargin (Tg) (500 nM, 18 h).

[1] = compound 10 μM, HEK293 T-REx XBP1-RLuc reporter cells, relative to thapsigargin (Tg) 500 nM

Row | SMILES | activation at 10 µM [1] | activation at 10 µM
1 | Cc1ccc(OCCN(C)C(=O)Cn2cc(NC(=O)C3(CNc4ccc(F)nc4C)CC3)cn2)cc1 [Compound 293, 1-(((6-fluoro-2-methylpyridin-3-yl)amino)methyl)-N-(1-(2-(methyl (2-(p-tolyloxy)ethyl)amino)-2-oxoethyl)-1H-pyrazol-4-yl)cyclopropane-1-carboxamide] | < 30% | –
2 | Cc1ccc(OCCN(C)C(=O)Cn2cc(NC(=O)CCNc3cccc(N)n3)cn2)cc1 [Compound 154] | > 50% | –
3 | Cc1ccc(OCCN(C)C(=O)Cn2cc(NC(=O)CCNc3ccnc(C)c3F)cn2)cc1 [Compound 209] | < 30% | –
4 | Cc1ccc(OCCN(C)C(=O)Cn2cc(NC(=O)CCNc3c(F)cnc(C)c3C)cn2)cc1 [Compound 215] | > 50% | –
5 | Cc1ccc(OCCN(C)C(=O)Cn2cc(NC(=O)CCOc3ccccc3C)cn2)cc1 [Compound 34] | > 50% | –
6 | Cc1ccc(OCCN(C)C(=O)Cn2cc(NC(=O)CCNc3c(F)cncc3Cl)cn2)cc1 [Compound 150] | 30 to 50% | –
7 | COC(=O)Nc1cccc(NCCC(=O)Nc2cnn(CC(=O)N(C)CCOc3ccc(C)cc3)c2)n1 [Compound 253] | < 30% | –
8 | Cc1ccc(OCCN(C)C(=O)Cn2cc(NC(=O)CCNc3cc(Cl)ccn3)cn2)cc1 [Compound 145] | < 30% | –
9 | Cc1ccc(OCCN(C)C(=O)Cn2cc(NC(=O)CCOc3cccc(NC(=O)OC(C)(C)C)n3)cn2)cc1 [Compound 102] | > 50% | –
10 | Cc1ccc(OCCN(C)C(=O)Cn2cc(NC(=O)C(CNc3ccc(F)nc3C)C3CCCCC3)cn2)cc1 (stereo not shown) [Compound 219] | 30 to 50% | –
11 | Cc1ccc(OCCN(C)C(=O)Cn2cc(NC(=O)CCNc3ccnc(C)c3)cn2)cc1 [Compound 164, N-(1-(2-(methyl(2-(p-tolyloxy)ethyl)amino)-2-oxoethyl)-1H-pyrazol-4-yl)-3-((2-methylpyridin-4-yl)amino)propanamide] | 30 to 50% | –
12 | CN(CCOc1ccc(C(F)(F)F)cn1)C(=O)Cn1cc(NC(=O)CCNc2ccnc(F)n2)cn1 [Compound 267] | 30 to 50% | –
13 | Cc1ccc(OCCN(C)C(=O)Cn2cc(NC(=O)CCOc3ccnc(Cl)c3)cn2)cc1 [Compound 8] | > 50% | –
14 | C#CCCC1(CCC(=O)Nc2cncc(OCCC(=O)Nc3cnn(CC(=O)N(C)CCOc4ccc(C)cc4)c3)c2)N=N1 [Compound 236] | < 30% | –
15 | COc1cccc(OCCC(=O)Nc2cnn(CC(=O)N(C)CCOc3ccc(C)cc3)c2)c1 [Compound 36] | > 50% | –
16 | Cc1ccc(OCCN(C)C(=O)Cn2cc(NC(=O)CCNc3ccnc(C(F)(F)F)c3)cn2)cc1 [Compound 128] | < 30% | –
17 | Cc1ccc(OCCN(C)C(=O)Cn2cc(NC(=O)CCNc3c(F)cncc3C=O)cn2)cc1 [Compound 230, 3-((3-fluoro-5-formylpyridin-4-yl)amino)-N-(1-(2-(methyl(2-(p-tolyloxy)ethyl)amino)-2-oxoethyl)-1H-pyrazol-4-yl)propanamide] | > 50% | –
18 | Cc1ccc(OCCN(C)C(=O)Cn2cc(NC(=O)CCOc3ccc(F)cc3F)cn2)cc1 [Compound 49] | > 50% | –
19 | C#CC1CCCCC1OCCC(=O)Nc1cnn(CC(=O)N(C)CCOc2ccc(C)cc2)c1 (stereo not shown) [Compound 2, 3-((2-ethynylcyclohexyl)oxy)-N-(1-(2-(methyl(2-(p-tolyloxy)ethyl)amino)-2-oxoethyl)-1H-pyrazol-4-yl)propanamide hydrochloride] | – | > 50%
20 | COc1ccc(OCCN(C)C(=O)Cn2cc(NC(=O)CCNc3ccnc(C)c3)cn2)cc1 [Compound 166] | < 30% | –
21 | Cc1ccc(OCCN(C)C(=O)Cn2cc(NC(=O)CCOc3cncc(N)c3)cn2)cc1 [Compound 235] | < 30% | –
22 | Cc1ccc(OCCN(C)C(=O)Cn2cc(NC(=O)CCNc3cc(C(F)(F)F)ccn3)cn2)cc1 [Compound 133] | > 50% | –

Row | SMILES | activation at 10 µM [1] | activation at 10 µM
23 | Cc1ccc(OCCN(C)C(=O)Cn2cc(NC(=O)CCNc3ncc(Cl)cc3F)cn2)cc1 [Compound 140] | > 50% | –
24 | CN(CCOc1ccc(C(F)(F)F)cn1)C(=O)Cn1cc(NC(=O)CCOc2ccc(Cl)cc2F)cn1 [Compound 94] | 30 to 50% | –
25 | Cc1ccc(OCCN(C)C(=O)Cn2cc(NC(=O)CCOC3CCCCC3(C)C)cn2)cc1 (stereo not shown) [Compound 4] | < 30% | –
26 | Cc1ccc(OCCN(C)C(=O)Cn2cc(NC(=O)CCNc3ccccc3)cn2)cc1 [Compound 27] | > 50% | –
27 | Cc1ccc(OCCN(C)C(=O)Cn2cc(NC(=O)CCOc3cncnc3N)cn2)cc1 [Compound 117] | < 30% | –
28 | Cc1ccc(OCCN(C)C(=O)Cn2cc(NC(=O)CCNc3cnc(C)nc3)cn2)cc1 [Compound 212] | < 30% | –
29 | COc1ccnc(NCCC(=O)Nc2cnn(CC(=O)N(C)CCOc3ccc(C)cc3)c2)c1 [Compound 175] | 30 to 50% | –
30 | Cc1ccc(OCCN(C)C(=O)Cn2cc(NC(=O)CCNc3c(F)cnc(C)c3C3CC3)cn2)cc1 [Compound 214] | > 50% | –
31 | Cc1ccc(OCCN(C)C(=O)Cn2cc(NC(=O)CCOc3cccc(CO)c3)cn2)cc1 [Compound 61] | > 50% | –
32 | Cc1ccc(OCCC(=O)Nc2cnn(CC(=O)N(C)CCOc3ncc(F)cc3F)c2)c(F)c1 [Compound 80] | < 30% | –
33 | Cc1ccc(OCCN(C)C(=O)Cn2cc(NC(=O)CCN(C(=O)OC(C)(C)C)c3ccccc3)cn2)cc1 [Compound 23] | < 30% | –
34 | Cc1ccc(OCCN(C)C(=O)Cn2cc(NC(=O)C(O)CNc3ncc(F)cn3)cn2)cc1 (stereo not shown) [Compound 163] | < 30% | –
35 | CCc1cc(F)ccc1OCCC(=O)Nc1cnn(CC(=O)N(C)CCOc2ccc(C)cc2)c1 [Compound 59] | < 30% | –
36 | Cc1ccc(OCCN(C)C(=O)Cn2cc(NC(=O)CCNc3cccnc3C(F)(F)F)cn2)cc1 [Compound 186] | > 50% | –
37 | Cc1cnc(OCCN(C)C(=O)Cn2cc(NC(=O)CCNc3ccc(F)nc3C)cn2)nc1 [Compound 244] | < 30% | –
38 | Cc1ccc(OCCN(C)C(=O)Cn2cc(NC(=O)[C@H](C)CNc3ccnc(F)n3)cn2)cc1 [Compound 225] | 30 to 50% | –
39 | COc1cc(F)ccc1OCCN(C)C(=O)Cn1cc(NC(=O)CCNc2ncccn2)cn1 [Compound 282, N-(1-(2-((2-(4-fluoro-2-methoxyphenoxy)ethyl)(methyl)amino)-2-oxoethyl)-1H-pyrazol-4-yl)-3-(pyrimidin-2-ylamino)propanamide] | < 30% | –
40 | Cc1ccc(OCCC(=O)Nc2cnn(CC(=O)N(C)CCOc3ccc(F)c(F)c3)c2)c(F)c1 [Compound 70] | < 30% | –
41 | Cc1ccc(OCCN(C)C(=O)Cn2cc(NC(=O)CCOc3ccc(N)cn3)cn2)cc1 [Compound 205] | > 50% | –
42 | CN(CCOc1cc(C(F)F)on1)C(=O)Cn1cc(NC(=O)CCNc2nccc(F)n2)cn1 [Compound 271] | < 30% | –
43 | CCc1nccnc1NCCC(=O)Nc1cnn(CC(=O)N(C)CCOc2ccc(C)cc2)c1 [Compound 142] | 30 to 50% | –

From US20260193236A1 (Protego Biopharma, Inc., priority 2022, published 2026)
